Assay results published in a melting point compilation (Tetko et al.; mined from patent text by program, amines drawn as free bases though some values may be those of a salt).

A melting point of 111 to 114 °C was found for CN(C)S(=O)(=O)n1cc(-c2ccccc2[N+](=O)[O-])nc1C#N in this work.
A melting point of 204 to 206 °C was found for CC(=O)OCc1c(-c2ccccc2)oc2c(CO)cccc2c1=O in this work.
A melting point of 58 to 59 °C was found for COC(=O)C#CC(=O)c1ccc(Cl)c(Cl)c1 in this work.
A melting point of 98 °C was found for Cc1coc(NC(=O)CCCCl)n1 in this work.
A melting point of 141 to 142 °C was found for CC(C)(C)c1ccc(C(O)CCCN2CCC(=C3c4ccccc4C=Cc4ccccc43)CC2)cc1 (configuration not stated) in this work.
A melting point of 114 to 116 °C was found for O=S(=O)(c1ccccc1)N1CCC(C(=NCc2ccc(F)cc2)c2ccc(F)cc2)CC1 in this work.
A melting point of 151 °C was found for N[C@@H]1CN2C(=O)N(c3cc(Cl)nc(Cl)c3)C(=O)[C@@]2(Cc2ccc(OC(F)(F)F)cc2)C1 in this work.
A melting point of 86 to 89 °C was found for CCOC(=NC(=O)Nc1ccc(OC(F)(F)F)cc1)c1ccccc1Cl in this work.
A melting point of 137 to 139 °C was found for CC(C)(C)c1ccccc1N1CCN(C(=O)c2ccc(F)cc2)CC1 in this work.
A melting point of 144 to 146 °C was found for NC(=O)NCCCC(NC(=O)OCc1ccccc1)C(=O)OCc1ccc([N+](=O)[O-])cc1 (configuration not stated) in this work.
A melting point of 95 to 96 °C was found for CCCc1c(OCCCCCc2nnn[nH]2)ccc(C(C)=O)c1O in this work.
A melting point of 145 °C was found for O=C(NCc1cccc2nc(N[C@@H]3CCc4ccccc43)ccc12)c1ccc(F)cc1 in this work.
A melting point of 108 to 109 °C was found for COC(=O)CCc1cc(N)c(O)c(C(C)(C)C)c1 in this work.
A melting point of 83 to 85 °C was found for Cn1nc(-c2ccccc2)nc1-c1ccccc1CBr in this work.
A melting point of 108 to 110 °C was found for COc1cccc(CNC(=O)[C@H]2N(C(=O)[C@@H](O)[C@@H](Cc3ccccc3)NC(=O)c3cccc(O)c3C)CSC2(C)C)c1 in this work.
A melting point of 81 to 82 °C was found for CCCCCS(=O)(=O)NC(=O)CCc1ccc(OCCOC)cc1OCC1CCCCC1 in this work.
A melting point of 115 to 117 °C was found for COC(=O)c1cccc(Cn2ccc(OCc3ccc(F)cc3F)c(Br)c2=O)c1 in this work.
A melting point of 102 to 106 °C was found for COc1ccccc1Oc1c(NS(=O)(=O)c2ccc(C(C)(C)C)cc2)nc(NCCN(C)C)nc1OCCO in this work.
A melting point of 192 °C was found for C=C1CCCC2CCC3C(CCC4(C)C3C(C=O)C35OCCOC43OCCO5)C12C (configuration not stated) in this work.
A melting point of 118 to 119 °C was found for O=C1SC[C@H]2[C@@H]1N(Cc1ccccc1)C(=O)N2Cc1ccccc1 (relative stereo) in this work.
A melting point of 198 °C was found for O=C(O)Cc1cc(C(=O)Cc2ccccc2)ccc1O in this work.
A melting point of 178 to 180 °C was found for Cn1cc(C(=O)Nc2cnccc2-c2ccc(Cl)cc2)c(C(F)(F)F)c1 in this work.
A melting point of 222 to 224 °C was found for Cn1cc(C2=C(c3cn(CCCN=[N+]=[N-])c4ccccc34)C(=O)NC2=O)c2ccccc21 in this work.
A melting point of 85 to 89 °C was found for CCCCN1CCC(CCC(=O)c2ccc(N)nc2OC)CC1 in this work.
A melting point of 167 to 168 °C was found for O=C1c2cc(F)cc(F)c2OC[C@H]1NC(=O)C(F)(F)F in this work.
A melting point of 120 to 122 °C was found for N#Cc1cccnc1N1CCN(CC(=O)Nc2ccc(F)c(C(F)(F)F)c2)CC1 in this work.
A melting point of 62 to 63 °C was found for CCCCc1c(Cl)ncnc1Cl in this work.
A melting point of 208 to 210 °C was found for C=C1OC(=NO)C(c2ccccc2)C(=O)N1C(C)(C)C(=O)Nc1cc(Cl)cc(Cl)c1 (configuration not stated) in this work.
A melting point of 160 to 161 °C was found for CCCCOC(=O)c1c(CBr)nc2cc(OC)c(OC)cc2c1-c1ccc(OC)c(OC)c1 in this work.
A melting point of 186 °C was found for N#Cc1cc2c(cc1C(F)(F)F)[nH]c(=O)c(=O)n2OC(=O)c1ccccc1 in this work.
A melting point of 140 °C was found for COc1cc(N)c(Cl)cc1C(=O)OCC1CCN(CCCOc2ccc(F)cc2)CC1 in this work.
A melting point of 68 to 71 °C was found for Cc1cc(C)cc(C(=O)N2CCN(C(=O)CBr)C(c3ccc(Cl)c(Cl)c3)C2)c1 (racemic) in this work.
A melting point of 143 to 145 °C was found for CC(CN(C)c1ccccc1)NCC(O)c1ccc(O)c(C(N)=O)c1 (configuration not stated) in this work.
A melting point of 184 to 191 °C was found for N#Cc1cnc(N)nc1-c1ccc(Cl)cc1C1(c2ccccc2F)OCC(CCl)O1 (configuration not stated) in this work.
A melting point of 122 to 123 °C was found for Nc1sc2c(c1C(=O)c1cccs1)CCN(Cc1ccccc1)C2 in this work.
A melting point of 107 to 110 °C was found for COc1ccc2cc(CC(O)C(C)=O)ccc2c1 (configuration not stated) in this work.
A melting point of 137 to 139 °C was found for C#CCN(Cc1ccc2nc[nH]c(=O)c2c1)c1ccc(C(=O)NCc2cccnc2)cc1 in this work.
